{
  "source": "patent US20060034895A1",
  "about": "“Supplement food for low blood glucose recovery” (priority 2003, published 2006)",
  "origin": "cited, not measured here",
  "data": [
    {"smiles": "O=C[C@H](O)[C@@H](O)[C@H](O)[C@H](O)CO", "note": "[D-glucose]", "values": [
      {"measurement": "solubility in alcohol", "setting": "alcohol", "result": "cannot melt into an alcohol easily"},
      {"measurement": "solubility in ether", "setting": "ether", "result": "insoluble to ether"},
      {"measurement": "solubility in water", "setting": "water", "result": "easy to melt into water"}
    ]}
  ]
}
